Reference: Sander's compilation of Henry's law constants

How the values were obtained:
[1] = Henry solubility constant Hcp at 296 K (mol/(m3 Pa))
[2] = Henry solubility constant Hcp at 298.15 K (mol/(m3 Pa))
[3] = Henry solubility constant Hcp at 293 K (mol/(m3 Pa))
[4] = Henry solubility constant Hcp at 303 K (mol/(m3 Pa))
[5] = Henry solubility constant Hcp at 310 K (mol/(m3 Pa))
[6] = reference: Fendinger et al. (1989)
[7] = reference: Meynier et al. (2003)
[8] = reference: Gossett et al. (1985)
[9] = reference: Hartkopf and Karger (1973)
[10] = reference: Lincoff and Gossett (1984)
[11] = reference: Warner et al. (1980)
[12] = reference: McIntosh and Heffron (2000)
[13] = reference: Chiang et al. (1998)
[14] = reference: Pearson and McConnell (1975)
[15] = reference: Yurteri et al. (1987)
[16] = reference: Bissonette et al. (1990)
[17] = reference: Robbins et al. (1993)
[18] = reference: Turner et al. (1996)
[19] = reference: Kieckbusch and King (1979b)
[20] = reference: Richon et al. (1985)

Which results are given for `CCCN(CCC)c1c([N+](=O)[O-])cc(C(F)(F)F)cc1[N+](=O)[O-]` [trifluralin]?
Henry solubility constant Hcp at 296 K [1, 6]: 0.19; Henry solubility constant Hcp [2, 6]: 0.17; Henry solubility constant Hcp at 293 K ([3]; reference: Rice et al. (1997b)): 0.095

With `CCC/C=C/C=O` [(E)-2-hexenal] as the molecule, how does the “Henry solubility constant Hcp at 303 K” value [4, 7] read?
Its value is 0.9.

What about the “Henry solubility constant Hcp” value ([2]; reference: Buttery et al. (1971)) of the same molecule?
Its value is 0.2.

With `CC(=O)OCCC(C)C` [3-methylbutyl ethanoate] as the molecule, how does the “Henry solubility constant Hcp at 303 K” value [4, 7] read?
Its value is 0.088.

What about the “Henry solubility constant Hcp” value ([2]; reference: Ammari and Schroen (2019)) of the same molecule?
Its value is 0.022.

For `ClCCl` [dichloromethane], which “Henry solubility constant Hcp at 296 K” value ([1]; reference: David et al. (2000)) is on record?
Its value is 0.0039.

And the “Henry solubility constant Hcp” value ([2]; reference: Chen et al. (2012))?
The value was 0.0035.

And the “Henry solubility constant Hcp” value ([2]; reference: Gossett (1987))?
Its value is 0.0046.

And the “Henry solubility constant Hcp” value [2, 8]?
The value was 0.0038.

And the “Henry solubility constant Hcp” value [2, 9]?
Its value is 0.0042.

And the “Henry solubility constant Hcp” value [2, 10]?
Its value is 0.0034.

And the “Henry solubility constant Hcp” value ([2]; reference: Lutsyk et al. (2005))?
The value was 0.0043.

And the “Henry solubility constant Hcp” value ([2]; reference: Park et al. (1997))?
Its value is 0.0043.

What about the “Henry solubility constant Hcp” value [2, 11] of the same molecule?
The value was 0.0031.

And the “Henry solubility constant Hcp at 310 K” value [5, 12]?
Its value is 0.0034.

And the “Henry solubility constant Hcp at 293 K” value [3, 13]?
Its value is 0.0034.

And the “Henry solubility constant Hcp at 293 K” value [3, 14]?
Its value is 0.0033.

What about the “Henry solubility constant Hcp at 293 K” value ([3]; reference: Yu (1992)) of the same molecule?
Its value is 0.0044.

What about the “Henry solubility constant Hcp at 293 K” value [3, 15] of the same molecule?
The value was 0.0052.

Which “Henry solubility constant Hcp at 303 K” value ([4]; reference: Saylor et al. (1938)) does the source give for `CCC(=O)CC` [3-pentanone] here?
The value was 9.7e-05.

And the “Henry solubility constant Hcp” value ([2]; reference: Hovorka et al. (2019))?
Its value is 0.11.

And the “Henry solubility constant Hcp” value ([2]; reference: Ji and Evans (2007))?
The value was 0.16.

For `Cc1ccccc1C` [1,2-dimethylbenzene], which “Henry solubility constant Hcp at 296 K” value ([1]; reference: Anderson (1992)) is on record?
The value was 0.0017.

And the “Henry solubility constant Hcp” value [2, 16]?
Its value is 0.0021.

And the “Henry solubility constant Hcp” value ([2]; reference: Li et al. (2008))?
Its value is 0.0023.

And the “Henry solubility constant Hcp” value [2, 17]?
The value was 0.002.

And the “Henry solubility constant Hcp” value ([2]; reference: Sieg et al. (2009))?
Its value is 0.002.

And the “Henry solubility constant Hcp” value [2, 18]?
Its value is 0.0014.

What about the “Henry solubility constant Hcp” value ([2]; reference: Wasik and Tsang (1970)) of the same molecule?
The value was 0.0029.

What about the “Henry solubility constant Hcp at 310 K” value [5, 12] of the same molecule?
The value was 0.00096.

And the “Henry solubility constant Hcp at 293 K” value [3, 15]?
The value was 0.0023.

Which “Henry solubility constant Hcp at 296 K” value ([1]; reference: Nunn (1958)) does the source give for `[N-]=[N+]=O` [dinitrogen monoxide] here?
Its value is 0.00022.

What about the “Henry solubility constant Hcp” value ([2]; reference: Carius (1855)) of the same molecule?
Its value is 0.00025.

What about the “Henry solubility constant Hcp” value ([2]; reference: Gabel and Schultz (1973)) of the same molecule?
Its value is 0.00025.

What about the “Henry solubility constant Hcp” value ([2]; reference: Geffcken (1904)) of the same molecule?
The value was 0.00024.

And the “Henry solubility constant Hcp” value ([2]; reference: Joosten and Danckwerts (1972))?
Its value is 0.00024.

What about the “Henry solubility constant Hcp” value ([2]; reference: Kunerth (1922)) of the same molecule?
The value was 0.00024.

What about the “Henry solubility constant Hcp” value ([2]; reference: Orcutt and Seevers (1937a)) of the same molecule?
Its value is 0.00024.

What about the “Henry solubility constant Hcp” value ([2]; reference: Roth (1897)) of the same molecule?
The value was 0.00023.

What about the “Henry solubility constant Hcp” value ([2]; reference: Saidman et al. (1966)) of the same molecule?
The value was 0.00024.

And the “Henry solubility constant Hcp” value ([2]; reference: Siebeck (1909))?
Its value is 0.00024.

And the “Henry solubility constant Hcp” value ([2]; reference: Weiss and Price (1980))?
Its value is 0.00024.

What about the “Henry solubility constant Hcp at 310 K” value ([5]; reference: Bachofen and Farhi (1971)) of the same molecule?
The value was 0.00019.

And the “Henry solubility constant Hcp at 310 K” value ([5]; reference: Sy and Hasbrouck (1964))?
The value was 0.00014.

For `CCCCC(=O)OCC` [ethyl pentanoate], which “Henry solubility constant Hcp at 303 K” value [4, 7] is on record?
Its value is 0.14.

For `CCCCCOC(C)=O` [pentyl ethanoate], which “Henry solubility constant Hcp at 303 K” value [4, 7] is on record?
The value was 0.13.

And the “Henry solubility constant Hcp” value [2, 19]?
The value was 0.028.

Which “Henry solubility constant Hcp at 296 K” value ([1]; reference: David et al. (2000)) does the source give for `ClC=C(Cl)Cl` [trichloroethene] here?
Its value is 0.001.

What about the “Henry solubility constant Hcp” value ([2]; reference: Bierwagen and Keller (2001)) of the same molecule?
Its value is 0.0012.

What about the “Henry solubility constant Hcp” value [2, 16] of the same molecule?
Its value is 0.001.

What about the “Henry solubility constant Hcp” value ([2]; reference: Chen et al. (2012)) of the same molecule?
Its value is 0.001.

And the “Henry solubility constant Hcp” value ([2]; reference: Cooling et al. (1992))?
The value was 0.00097.

And the “Henry solubility constant Hcp” value ([2]; reference: Ervin et al. (1980))?
The value was 0.00074.

And the “Henry solubility constant Hcp” value ([2]; reference: Garbarini and Lion (1985))?
Its value is 0.001.

And the “Henry solubility constant Hcp” value ([2]; reference: Gossett (1987))?
Its value is 0.001.

What about the “Henry solubility constant Hcp” value [2, 8] of the same molecule?
The value was 0.0011.

And the “Henry solubility constant Hcp” value ([2]; reference: Görgényi et al. (2002))?
Its value is 0.00095.

What about the “Henry solubility constant Hcp” value ([2]; reference: Heron et al. (1998)) of the same molecule?
The value was 0.00093.

What about the “Henry solubility constant Hcp” value ([2]; reference: Khalfaoui and Newsham (1994b)) of the same molecule?
The value was 0.00095.

And the “Henry solubility constant Hcp” value ([2]; reference: Knauss et al. (2000))?
Its value is 0.0011.

And the “Henry solubility constant Hcp” value [2, 10]?
The value was 0.00097.

What about the “Henry solubility constant Hcp” value ([2]; reference: Munz and Roberts (1987)) of the same molecule?
Its value is 0.00096.

And the “Henry solubility constant Hcp” value ([2]; reference: Nielsen et al. (1994))?
The value was 0.0013.

And the “Henry solubility constant Hcp” value ([2]; reference: Park et al. (1997))?
The value was 0.00088.

And the “Henry solubility constant Hcp” value ([2]; reference: Peng and Wan (1997))?
Its value is 0.0011.

And the “Henry solubility constant Hcp” value ([2]; reference: Peng and Wan (1998))?
Its value is 0.0014.

And the “Henry solubility constant Hcp” value ([2]; reference: Ramachandran et al. (1996))?
The value was 0.00083.

What about the “Henry solubility constant Hcp” value [2, 17] of the same molecule?
Its value is 0.00094.

And the “Henry solubility constant Hcp” value ([2]; reference: Schoene and Steinhanses (1985))?
Its value is 0.0009.

And the “Henry solubility constant Hcp” value ([2]; reference: Shimotori and Arnold (2003))?
The value was 0.001.

And the “Henry solubility constant Hcp” value ([2]; reference: Tancrède and Yanagisawa (1990))?
The value was 0.0013.

And the “Henry solubility constant Hcp” value [2, 18]?
The value was 0.00085.

What about the “Henry solubility constant Hcp” value ([2]; reference: Vane and Giroux (2000)) of the same molecule?
Its value is 0.0011.

And the “Henry solubility constant Hcp” value [2, 11]?
Its value is 0.00084.

What about the “Henry solubility constant Hcp at 293 K” value [3, 13] of the same molecule?
The value was 0.0011.

And the “Henry solubility constant Hcp at 293 K” value [3, 14]?
The value was 0.0011.

And the “Henry solubility constant Hcp at 293 K” value [3, 15]?
The value was 0.00094.

Which results are given for `CCOC=O` [ethyl methanoate]?
Henry solubility constant Hcp at 303 K [4, 20]: 0.023; Henry solubility constant Hcp [2, 9]: 0.0019; Henry solubility constant Hcp ([2]; reference: Kutsuna et al. (2005)): 0.034; Henry solubility constant Hcp ([2]; reference: Wittig et al. (2001)): 0.04

For `CC[N+](=O)[O-]` [nitroethane], which “Henry solubility constant Hcp at 303 K” value ([4]; reference: Friant and Suffet (1979)) is on record?
Its value is 0.14.

And the “Henry solubility constant Hcp” value ([2]; reference: Beneš and Dohnal (1999))?
Its value is 0.22.

With `CCCOC(C)=O` [propyl ethanoate] as the molecule, how does the “Henry solubility constant Hcp at 303 K” value [4, 20] read?
The value was 0.031.

What about the “Henry solubility constant Hcp” value ([2]; reference: Fenclová et al. (2014)) of the same molecule?
Its value is 0.045.

And the “Henry solubility constant Hcp” value [2, 19]?
Its value is 0.045.

With `C=CC(C)(C)O` [2-methyl-3-buten-2-ol] as the molecule, how does the “Henry solubility constant Hcp at 303 K” value ([4]; reference: Iraci et al. (1999)) read?
Its value is 0.64.
